One experiment addresses T1, E. feacium DltA (Enterococcus faecium, UniProt Q3XZT7).
T1 sequence (Q3XZT7 1-504): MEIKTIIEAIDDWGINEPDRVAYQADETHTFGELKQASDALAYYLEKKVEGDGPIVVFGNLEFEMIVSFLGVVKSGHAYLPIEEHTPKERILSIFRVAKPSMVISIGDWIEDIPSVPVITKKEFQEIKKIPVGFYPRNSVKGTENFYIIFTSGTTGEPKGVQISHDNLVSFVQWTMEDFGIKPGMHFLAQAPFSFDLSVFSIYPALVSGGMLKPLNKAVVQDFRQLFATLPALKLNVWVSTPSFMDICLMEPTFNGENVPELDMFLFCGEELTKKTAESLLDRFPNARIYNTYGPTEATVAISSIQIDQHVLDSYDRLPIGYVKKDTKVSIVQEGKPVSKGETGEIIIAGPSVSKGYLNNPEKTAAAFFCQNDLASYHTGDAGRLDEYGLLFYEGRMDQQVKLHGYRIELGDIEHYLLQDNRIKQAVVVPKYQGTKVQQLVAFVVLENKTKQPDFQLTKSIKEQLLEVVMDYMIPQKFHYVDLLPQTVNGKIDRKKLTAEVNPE
Nature of the experiment: in vitro DltA activity assay (luminescence, IC50 determination). To be noted: recombinant DltA, 30min preincubation at room temperature, 0.5mM D-Alanine, 0.5-5µM ATP; read-out: E. feacium DltA IC50. It is filed as biochemical. The protocol: (§1) The effect of the compounds of the invention on DltA enzymes has been based on the measure of their inhibition of DltA activity in vitro. To this end, recombinant proteins DltA were expressed and purified after cloning of the genes of S. aureus, E. faecalis, E. faecium and S. agalactiae as described thereafter. The capacity of the compounds of the invention to inhibit DltA enzymatic activity was assessed using the DltA assays as described below: • The dltA gene was amplified from chromosomal DNA of S. aureus, E. faecalis, E. faecium and S. agalactiae and introduced into E. coli BL21 (Invitrogen, Carlsbad, CA) following manufacturer's instruction. Bacteria were grown at 37°C under aerobic conditions and isopropyl-beta-D-thiogalactopyranoside (IPTG) was added to 0.5-1 mM when OD600 of the bacterial culture had reached 0.5. After a further incubation for 3 hours, cells were harvested by centrifugation. Purification of the recombinant DltA protein was performed by affinity chromatography on nickel-nitrilotriacetic acid (Ni-NTA) column following manufacturer's instructions (Qiagen). Fractions containing recombinant DltA protein were adjusted to 50% glycerol and stored at -20°C until use.
(§2) The binding potency of the inhibitors against DltA enzyme was assessed by IC50 determination in an in vitro DltA activity assay. The assay buffer "AB" contained 50 mM Hepes pH8.0, 10mM MgCl2, 50mM KCI, 0.012% Triton-X100, 10mM DTT and 100nM Myelin-basic protein. The following components were added in a white polystyrene Costar plate up to a final volume of 30µL: 3µL DMSO, or inhibitor dissolved in DMSO and 27µL DltA enzyme in AB. After 30min of preincubation at room temperature, 30µL of Substrates mix in AB were added in each well to a final volume of 60µL. This reaction mixture was then composed of DltA (produced in house from S. aureus, E. faecalis, E. faecium and S. agalactiae), 0.5mM D-Alanine (Sigma), 0.5-5µM ATP (Sigma) and 0.05 u/ml inorganic pyrophosphatase (Sigma) in assay buffer. After typically 1-2hours of incubation at room temperature (conversion rate around 30%), 30µL of the revelation mix were added to a final volume of 90µL, including the following constituents at the respective final concentrations: 10000 u/ml luciferase (Sigma), 30µM D-luciferin (Sigma), 100µM N-acetylcysteamine (Aldrich). Luminescence intensity was immediately measured on a Fluostar Optima (BMG) (excitation 360nm, emission 520nm) and converted into inhibition percentages.
(§3) For compounds interfering with the luminescent signal (quenching), the same experiment without DltA enzyme was performed to allow quenching determination and correction.

The next experiment deals with T2, S. aureus DltA (Staphylococcus aureus, UniProt Q2FZW6).
T2 construct: made in house; host or cells: E. coli BL21
T2 sequence (Q2FZW6 1-485): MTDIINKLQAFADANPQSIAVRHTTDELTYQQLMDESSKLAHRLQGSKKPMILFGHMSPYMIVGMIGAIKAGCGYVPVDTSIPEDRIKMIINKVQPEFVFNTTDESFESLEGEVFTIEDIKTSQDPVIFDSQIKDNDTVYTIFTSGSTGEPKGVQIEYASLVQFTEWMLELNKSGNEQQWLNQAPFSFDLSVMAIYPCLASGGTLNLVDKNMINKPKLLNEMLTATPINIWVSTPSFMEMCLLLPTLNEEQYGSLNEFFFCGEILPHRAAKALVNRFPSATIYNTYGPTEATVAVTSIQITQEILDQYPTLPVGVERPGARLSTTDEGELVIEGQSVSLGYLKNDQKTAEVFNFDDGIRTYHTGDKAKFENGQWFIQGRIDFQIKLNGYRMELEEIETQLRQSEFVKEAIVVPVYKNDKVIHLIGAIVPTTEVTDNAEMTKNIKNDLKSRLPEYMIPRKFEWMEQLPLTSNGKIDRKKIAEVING
Described as above. Type of experiment: biochemical. How it is done:
as §1, §2, §3

The target in another experiment is T3, E. feacalis DltA (Enterococcus faecalis, UniProt Q830N0).
T3 sequence (Q830N0 1-506): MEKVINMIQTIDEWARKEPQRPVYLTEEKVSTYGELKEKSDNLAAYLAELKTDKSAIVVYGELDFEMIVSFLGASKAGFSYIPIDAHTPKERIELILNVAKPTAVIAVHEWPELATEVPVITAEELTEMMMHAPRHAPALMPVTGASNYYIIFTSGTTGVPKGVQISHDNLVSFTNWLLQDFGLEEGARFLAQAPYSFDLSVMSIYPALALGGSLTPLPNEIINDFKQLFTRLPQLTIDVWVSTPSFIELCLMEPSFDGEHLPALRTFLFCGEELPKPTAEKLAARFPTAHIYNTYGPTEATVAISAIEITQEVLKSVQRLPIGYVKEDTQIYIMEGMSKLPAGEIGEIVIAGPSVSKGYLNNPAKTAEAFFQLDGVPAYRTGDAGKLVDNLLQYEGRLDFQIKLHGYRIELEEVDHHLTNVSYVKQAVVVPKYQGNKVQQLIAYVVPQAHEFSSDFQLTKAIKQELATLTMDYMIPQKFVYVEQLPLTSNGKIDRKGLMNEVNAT
Nature of the experiment: biochemical. How it is done:
as §1, with “To” for “The effect of the compounds of the invention on DltA enzymes has been based on the measure of their inhibition of DltA activity in vitro. To”
as §2, §3

Another experiment deals with T4, S. Agalactiae DltA (Streptococcus agalactiae serotype III, UniProt Q8VM67).
T4 sequence (Q8VM67 1-511): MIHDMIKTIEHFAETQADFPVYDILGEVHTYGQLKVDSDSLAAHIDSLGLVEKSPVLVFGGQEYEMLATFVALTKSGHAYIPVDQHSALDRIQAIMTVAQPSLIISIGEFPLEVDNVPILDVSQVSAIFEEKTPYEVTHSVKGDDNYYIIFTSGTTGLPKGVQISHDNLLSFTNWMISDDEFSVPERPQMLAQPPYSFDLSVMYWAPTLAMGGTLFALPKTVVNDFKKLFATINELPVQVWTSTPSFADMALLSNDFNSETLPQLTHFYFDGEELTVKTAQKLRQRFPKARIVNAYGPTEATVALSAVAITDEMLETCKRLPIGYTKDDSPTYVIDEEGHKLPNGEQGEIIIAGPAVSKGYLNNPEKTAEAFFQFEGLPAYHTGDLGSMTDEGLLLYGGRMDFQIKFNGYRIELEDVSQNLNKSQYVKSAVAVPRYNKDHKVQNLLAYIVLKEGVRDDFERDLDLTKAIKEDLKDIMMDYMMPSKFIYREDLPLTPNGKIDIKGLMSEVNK
Nature of the experiment: biochemical. The protocol:
as §1, with “To” for “The effect of the compounds of the invention on DltA enzymes has been based on the measure of their inhibition of DltA activity in vitro. To”
as §2, §3

The structures appear in SMILES notation. Where a name gives a salt, the structure may show the parent alone.

In the case of `O=c1[nH]cnc2c(-c3ccc4c(c3)ncn4C3CCCOC3)sc(N3CC[C@H](CO)C3)c12` (stereo partly drawn) [Example 49, 5-((S)-3-hydroxymethyl-pyrrolidin-1-yl)-7-[1-(tetrahydro-pyran-3-yl)-1-H-benzoimidazol-5-yl]-3H-thieno[3,4-d]pyrimidin-4-one], the IC50 is 160 nM on E. feacium DltA, 97 nM at S. aureus DltA, 82 nM against E. feacalis DltA and 3300 nM against S. Agalactiae DltA.
For the compound `O=c1[nH]cnc2c(-c3ccc4c(c3)ncn4C3CCCCC3)cn(C3CCOCC3)c12` [Example 81, 7-(1-Cyclohexyl-1H-benzimidazol-5-yl)-5-(tetrahydro-pyran-4-yl)-3,5-dihydro-pyrrolo[3,2-d]pyrimidin-4-one], the IC50 at E. feacium DltA stood at 300 nM; on S. aureus DltA, 76 nM; against E. feacalis DltA it was 170 nM; against S. Agalactiae DltA, 2500 nM.
On to `O=c1[nH]cnc2c1c(CCCO)cn2-c1ccc2c(c1)ncn2C1CCCCC1` [Example 51, 7-(1-Cyclohexyl-1H-benzoimidazol-5-yl)-5-(3-hydroxy-propyl)-3,7-dihydro-pyrrolo[2,3-d]pyrimidin-4-one], for which the IC50 amounted to 1200 nM on E. feacium DltA, 1100 nM on S. aureus DltA, 330 nM against E. feacalis DltA and 4500 nM at S. Agalactiae DltA.
Regarding `O=c1[nH]cnc2c(-c3ccc4c(c3)ncn4C3CCCCC3)sc(N3CC[C@H](CO)C3)c12` [Example 7, 7-(1-Cyclohexyl-1H-benzoimidazol-5-yl)-5-((S)-3-hydroxymethyl-pyrrolidin-1-yl)-3H-thieno[3,4-d]pyrimidin-4-one], the half-inhibitory concentration (IC50) at E. feacium DltA stood at 120 nM; against S. aureus DltA, 70 nM; at E. feacalis DltA, 37 nM; against S. Agalactiae DltA it was 3200 nM.
`O=c1[nH]cnc2c(-c3ccc4c(c3)ncn4C3CCCCC3)sc(N3CC4C(O)C4C3)c12` (centres unmarked) [Example 17, 7-(1-Cyclohexyl-1H-benzoimidazol-5-yl)-5-(6-hydroxy-3-aza-bicyclo[3.1.0]hex-3-yl)-3H-thieno[3,4-d]pyrimidin-4-one]: the 50% inhibitory concentration (IC50) worked out at 190 nM on E. feacium DltA, 220 nM against S. aureus DltA, 85 nM on E. feacalis DltA and 2200 nM at S. Agalactiae DltA.
As for `CN1CC=C(c2cn(-c3ccc4c(c3)ncn4C3CCCCC3)c3nc[nH]c(=O)c23)CC1` [Example 53, 7-(1-cyclohexyl-1H-benzoimidazol-5-yl)-5-(1-methyl-1,2,3,6-tetrahydro-pyridin-4-yl)-3,7-dihydro-pyrrolo[2,3-d]pyrimidin-4-one], the IC50 on E. feacium DltA worked out at 94 nM; against S. aureus DltA it was 150 nM; on E. feacalis DltA it was 13 nM; against S. Agalactiae DltA, 590 nM.
On the same counts, the results for `O=c1[nH]cnc2c(-c3ccc4c(c3)ncn4C3CCCCC3)cn([C@H]3CCCNC3)c12` [Example 76, 7-(1-Cyclohexyl-1H-benzimidazol-5-yl)-5-(S)-piperidin-3-yl-3,5-dihydro-pyrrolo[3,2-d]pyrimidin-4-one] are 460 nM, 67 nM, 69 nM and 1200 nM.
Turning to `O=c1[nH]cnc2c(-c3ccc4c(c3)ncn4[C@@H]3CCCC[C@H]3F)sc(N3CC[C@H](CO)C3)c12` [Example 47, 7-[1-((1R,2R)-2-fluoro-cyclohexyl)-1H-benzoimidazol-5-yl]-5-((S)-3-hydroxymethyl-pyrrolidin-1-yl)-3H-thieno[3,4-d]pyrimidin-4-one], the 50% inhibitory concentration (IC50) came out at 110 nM at E. feacium DltA, 77 nM against S. aureus DltA, 46 nM against E. feacalis DltA and 2600 nM against S. Agalactiae DltA.
The like results for `O=c1[nH]cnc2c1c(C1=CCNCC1)cn2-c1ccc2c(c1)ncn2C1CCCCC1` [Example 52, 7-(1-cyclohexyl-1H-benzoimidazol-5-yl)-5-(1,2,3,6-tetrahydro-pyridin-4-yl)-3,7-dihydro-pyrrolo[2,3-d]pyrimidin-4-one hydrochloride] were, in that order, 120 nM, 150 nM, 26 nM and 350 nM.
On to `CC1CCCC(n2cnc3cc(-c4sc(N5CC[C@H](CO)C5)c5c(=O)[nH]cnc45)ccc32)C1` (some centres unmarked) [Example 48], for which the values for the IC50 at E. feacium DltA and at S. aureus DltA were 110 nM and 68 nM, respectively.

The record behind these values is patent EP2913333A1 (priority 2014, dated 2015).
